Measurements from PubChem BioAssay (NCI).
Values joined by “and” are separate entries in the source; they are usually repeats but may differ in a detail not shown here. Equal entries are not always repeated.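 In this assay, cells in 96-well plates receive the compound at five concentrations for 48 hours. Endpoints are linearly interpolated between the surrounding concentrations. GI50 is the concentration that inhibits growth by half. TGI is the concentration that stops growth completely.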 Where a SMILES comes first, the peptide text is derived from it. The star is where a group is joined. Fmoc = O=C(OCC1c2ccccc2-c2ccccc21)*; OtBu = CC(C)(C)O*

How the values were obtained:
Assay in all cases: inhibition of tumour cell growth, NCI panel, 48 h
A549 NSCLC = system: A549 NSCLC
ACHN renal = system: ACHN renal
CAKI-1 renal = system: CAKI-1 renal
CCRF-CEM leukemia = system: CCRF-CEM leukemia
HT29 colon = system: HT29 colon
K-562 leukemia = system: K-562 leukemia
LOX IMVI melanoma = system: LOX IMVI melanoma
M14 melanoma = system: M14 melanoma
MDA-N = system: MDA-N
NCI/ADR-RES ovarian = system: NCI/ADR-RES ovarian
OVCAR-5 ovarian = system: OVCAR-5 ovarian
RXF 393 renal = system: RXF 393 renal
SF-268 CNS = system: SF-268 CNS
SK-MEL-28 melanoma = system: SK-MEL-28 melanoma
SR leukemia = system: SR leukemia
U251 CNS = system: U251 CNS
UACC-62 melanoma = system: UACC-62 melanoma

O=C1NC2c3c(I)sc(I)c3C(=O)C2O1 (stereo unspecified)
TGI (A549 NSCLC): 28.3 µM | TGI (ACHN renal): 7.89 µM | TGI (CAKI-1 renal): 9.36 µM | TGI (CCRF-CEM leukemia): 11 µM | TGI (HT29 colon): 3.25 µM | TGI (K-562 leukemia): > 59.9 µM | TGI (LOX IMVI melanoma): 5.15 µM | TGI (M14 melanoma): 5.23 µM | TGI (MDA-N): 9.16 µM | TGI (NCI/ADR-RES ovarian): 34.1 µM | TGI (OVCAR-5 ovarian): 28.3 µM | TGI (RXF 393 renal): 12.7 µM | TGI (SF-268 CNS): 21.5 µM | TGI (SK-MEL-28 melanoma): 21.5 µM | TGI (SR leukemia): 13.9 µM | TGI (U251 CNS): > 50 µM | TGI (UACC-62 melanoma): 23.3 µM

CCOC(=O)C1(C#N)OC(=O)c2cnccc21 (stereo unspecified)
TGI (A549 NSCLC): > 100 µM | TGI (ACHN renal): > 100 µM | TGI (CAKI-1 renal): > 100 µM | TGI (CCRF-CEM leukemia): > 100 µM | TGI (HT29 colon): > 100 µM | TGI (K-562 leukemia): > 100 µM | TGI (LOX IMVI melanoma): > 100 µM | TGI (M14 melanoma): > 100 µM | TGI (MDA-N): > 100 µM | TGI (NCI/ADR-RES ovarian): > 100 µM | TGI (OVCAR-5 ovarian): > 100 µM | TGI (RXF 393 renal): > 100 µM | TGI (SF-268 CNS): > 100 µM | TGI (SK-MEL-28 melanoma): > 100 µM | TGI (SR leukemia): > 100 µM | TGI (U251 CNS): > 100 µM | TGI (UACC-62 melanoma): > 100 µM

O=c1ccc2ccc(OP(=O)(O)O)cc2o1
TGI (A549 NSCLC): > 100 µM | TGI (ACHN renal): > 100 µM | TGI (CAKI-1 renal): > 100 µM | TGI (CCRF-CEM leukemia): > 100 µM | TGI (HT29 colon): > 100 µM | TGI (K-562 leukemia): > 100 µM | TGI (LOX IMVI melanoma): > 100 µM | TGI (M14 melanoma): > 100 µM | TGI (MDA-N): > 100 µM | TGI (NCI/ADR-RES ovarian): > 100 µM | TGI (OVCAR-5 ovarian): > 100 µM | TGI (RXF 393 renal): > 100 µM | TGI (SF-268 CNS): > 100 µM | TGI (SK-MEL-28 melanoma): > 100 µM | TGI (SR leukemia): > 100 µM | TGI (U251 CNS): > 100 µM | TGI (UACC-62 melanoma): > 100 µM

CC1=C(C(=O)OC2CC3CCC2(C)C3(C)C)C2Nc3ccccc3N(C)C2O1 (stereo unspecified)
TGI (A549 NSCLC): 4.53 µM | TGI (ACHN renal): 11.2 µM | TGI (CAKI-1 renal): 10.5 µM | TGI (CCRF-CEM leukemia): 7.07 µM | TGI (HT29 colon): 3.08 µM | TGI (K-562 leukemia): > 29.4 µM | TGI (LOX IMVI melanoma): 6.12 µM | TGI (M14 melanoma): 3.22 µM | TGI (MDA-N): 3.55 µM | TGI (NCI/ADR-RES ovarian): 12.6 µM | TGI (OVCAR-5 ovarian): 25.9 µM | TGI (RXF 393 renal): 18.5 µM | TGI (SF-268 CNS): 22.5 µM | TGI (SK-MEL-28 melanoma): 16 µM | TGI (SR leukemia): 9.52 µM | TGI (U251 CNS): 16.6 µM | TGI (UACC-62 melanoma): 4.29 µM

CCOC1OC(COC(=O)C(C)(C)C)C(O)CC1n1cc(C)c(=O)[nH]c1=O (stereo unspecified)
TGI (A549 NSCLC): > 100 µM | TGI (ACHN renal): > 100 µM | TGI (CAKI-1 renal): > 100 µM | TGI (CCRF-CEM leukemia): > 100 µM | TGI (HT29 colon): > 100 µM | TGI (K-562 leukemia): > 100 µM | TGI (LOX IMVI melanoma): > 100 µM | TGI (M14 melanoma): > 100 µM | TGI (MDA-N): > 100 µM | TGI (NCI/ADR-RES ovarian): > 100 µM | TGI (OVCAR-5 ovarian): > 100 µM | TGI (RXF 393 renal): > 100 µM | TGI (SF-268 CNS): > 100 µM | TGI (SK-MEL-28 melanoma): > 100 µM | TGI (SR leukemia): > 100 µM | TGI (U251 CNS): > 100 µM | TGI (UACC-62 melanoma): > 100 µM

CC1OC(OC2C(OC(=O)[C@]34CCC(C)(C)C[C@H]3C3=CC[C@@H]5[C@@]6(C)CC[C@H](OC7OC(C(=O)O)C(O)C(O)C7O)C(C)(C)[C@@H]6CC[C@@]5(C)[C@]3(C)C[C@H]4O)OCC(O)C2O)C(O)C(O)C1OC1OCC(O)C(O)C1O (stereo partly specified)
GI50 (A549 NSCLC): 11.8 µM and 5.48 µM | TGI (A549 NSCLC): 25.3 µM and 20.4 µM | TGI (ACHN renal): 21.5 µM | TGI (CAKI-1 renal): 25.6 µM and 21.6 µM | TGI (CCRF-CEM leukemia): 36.1 µM and 61.2 µM | TGI (HT29 colon): 20.2 µM and 17 µM | TGI (K-562 leukemia): 35.4 µM and 36.3 µM | TGI (LOX IMVI melanoma): 30.9 µM and 29.5 µM | TGI (M14 melanoma): 28.1 µM and 21.6 µM | TGI (MDA-N): 27.3 µM and 23.5 µM | GI50 (NCI/ADR-RES ovarian): 13 µM and 5.11 µM | TGI (NCI/ADR-RES ovarian): 27.1 µM and 19 µM | TGI (OVCAR-5 ovarian): 28.5 µM and 23 µM | TGI (RXF 393 renal): 35.4 µM and 31.6 µM | TGI (SF-268 CNS): 34.6 µM and 25.4 µM | GI50 (SK-MEL-28 melanoma): 14.9 µM and 7.34 µM | TGI (SK-MEL-28 melanoma): 29.1 µM and 22 µM | TGI (SR leukemia): 23 µM and > 100 µM | TGI (U251 CNS): 29.1 µM and 24.3 µM | TGI (UACC-62 melanoma): 32.7 µM and 30.1 µM

CCOC(=O)c1cc(C2CCN(c3ccccc3)C2=O)c(/C(O)=C/C(C)=O)[nH]1 (stereo unspecified)
TGI (A549 NSCLC): > 100 µM | TGI (ACHN renal): > 100 µM | TGI (CAKI-1 renal): > 100 µM | TGI (CCRF-CEM leukemia): > 100 µM | TGI (HT29 colon): > 100 µM | TGI (K-562 leukemia): > 100 µM | TGI (LOX IMVI melanoma): > 100 µM | TGI (M14 melanoma): > 100 µM | TGI (MDA-N): > 100 µM | TGI (NCI/ADR-RES ovarian): > 100 µM | TGI (OVCAR-5 ovarian): > 100 µM | TGI (RXF 393 renal): 55.6 µM | TGI (SF-268 CNS): > 100 µM | TGI (SK-MEL-28 melanoma): > 100 µM | TGI (SR leukemia): > 100 µM | TGI (U251 CNS): > 100 µM | TGI (UACC-62 melanoma): > 100 µM

CC(C)C(NC(=O)OCC1c2ccccc2-c2ccccc21)C(=O)NC(CCC(=O)OC(C)(C)C)C(=O)OC(C)(C)C (stereo unspecified) (Fmoc-Val-Glu(OtBu)-OtBu; configuration not given here)
TGI (A549 NSCLC): > 100 µM | TGI (ACHN renal): > 100 µM | TGI (CAKI-1 renal): > 100 µM | TGI (CCRF-CEM leukemia): > 100 µM | TGI (HT29 colon): > 100 µM | TGI (K-562 leukemia): > 100 µM | TGI (LOX IMVI melanoma): > 100 µM | TGI (M14 melanoma): > 100 µM | TGI (MDA-N): > 100 µM | TGI (NCI/ADR-RES ovarian): > 100 µM | TGI (OVCAR-5 ovarian): > 100 µM | TGI (RXF 393 renal): > 100 µM | TGI (SF-268 CNS): > 100 µM | TGI (SK-MEL-28 melanoma): > 100 µM | TGI (SR leukemia): > 100 µM | TGI (U251 CNS): > 100 µM | TGI (UACC-62 melanoma): > 100 µM

CC[C@]12C=CCN3CC[C@@]4(c5cc(N=O)c(OC)cc5N(C)[C@H]4[C@@](O)(C(=O)OC)[C@@H]1OC(C)=O)[C@@H]32
TGI (A549 NSCLC): > 100 µM | TGI (ACHN renal): > 100 µM | TGI (CAKI-1 renal): > 100 µM | TGI (CCRF-CEM leukemia): 74.1 µM | TGI (HT29 colon): > 100 µM | TGI (K-562 leukemia): > 100 µM | TGI (LOX IMVI melanoma): > 100 µM | TGI (M14 melanoma): > 100 µM | TGI (MDA-N): 48.5 µM | TGI (NCI/ADR-RES ovarian): > 100 µM | TGI (OVCAR-5 ovarian): > 100 µM | TGI (RXF 393 renal): > 100 µM | TGI (SF-268 CNS): > 100 µM | TGI (SK-MEL-28 melanoma): > 100 µM | TGI (SR leukemia): > 100 µM | TGI (U251 CNS): 33.3 µM | TGI (UACC-62 melanoma): > 100 µM
